Experimental data from US8003659B2, “Macrocyclic serine protease inhibitors” (Indenix Pharmaceuticals, Inc., priority 2008, dated 2011).

Assays:
[1] = Cytotoxicity evaluation (Cell Titer 96 AQueous One Solution Cell Proliferation Assay); assay type: cell-based; details: human; GS4.1 cells, cellular viability
Method: For cytotoxicity evaluation, GS4.1 cells were treated with compounds as described above and cellular viability was monitored using the Cell Titer 96 AQueous One Solution Cell Proliferation Assay (Promega). CC50 values were determined from the % cytotoxicity versus concentration data with Tecan Magellan software as described above.

[2] = tested on: Huh-7 cells containing HCV Con1 subgenomic replicon (GS4.1 cells); test: HCV Replicon Assay (NS4A ELISA); assay type: cell-based; details: Hepatitis C virus, Huh-7, 72 hr, NS4A protein by ELISA
Method: General procedure: Huh-7 cells containing HCV Con1 subgenomic replicon (GS4.1 cells) were grown in Dulbecco's Modified Eagle Medium (DMEM) supplemented with 10% fetal bovine serum (FBS), 2 mM L-glutamine, 110 mg/L sodium pyruvate, 1× non-essential amino acids, 100 U/mL penicillin-streptomycin, and 0.5 mg/mL G418 (Invitrogen). For dose-response testing, the cells were seeded in 96-well plates at 7.5×10^3 cells/well in a volume of 50 μL, and incubated at 37° C./5% CO2. Three hours after plating, 50 μL of ten 2-fold serial dilutions of compounds (highest concentration, 75 μM) were added, and cell cultures were incubated at 37° C./5% CO2 in the presence of 0.5% DMSO. Alternatively, compounds were tested at a single concentration of 15 μM. In all cases, Huh-7 cells lacking the HCV replicon served as negative control. The cells were incubated in the presence of compounds for 72 hr after which they were monitored for expression of the NS4A protein by enzyme-linked immunosorbent assay (ELISA). For this, the plates were then fixed for 1 min with acetone/methanol (1:1, v/v), washed twice with phosphate-buffered saline (PBS), 0.1% Tween 20, blocked for 1 hr at room temperature with TNE buffer containing 10% FBS and then incubated for 2 hr at 37° C. with the anti-NS4A mouse monoclonal antibody A-236 (ViroGen) diluted in the same buffer. After washing three times with PBS, 0.1% Tween 20, the cells were incubated 1 hr at 37° C. with anti-mouse immunoglobulin G-peroxidase conjugate in TNE, 10% FBS. After washing as described above, the reaction was developed with O-phenylenediamine (Zymed). The reaction was stopped after 30 min with 2 NH2SO4, and absorbance was read at 492 nm using Sunrise Tecan spectrophotometer. EC50 values were determined from the % inhibition versus concentration data using a sigmoidal non-linear regression analysis based on four parameters with Tecan Magellan software. When screening at a single concentration, the results were expressed as % inhibition at 15 μM.

[3] = target: T1, HCV NS3-NS4A protease (Hepatitis C virus genotype 1b, UniProt P26663); test: HCV Protease Assay (SensoLyte 620 HCV Protease Assay kit); assay type: biochemical; details: 1.2 nM HCV NS3-NS4A protease, 60 min at room temperature, 5% DMSO
T1 construct: made in house
T1 sequence (P26663 1027-1208): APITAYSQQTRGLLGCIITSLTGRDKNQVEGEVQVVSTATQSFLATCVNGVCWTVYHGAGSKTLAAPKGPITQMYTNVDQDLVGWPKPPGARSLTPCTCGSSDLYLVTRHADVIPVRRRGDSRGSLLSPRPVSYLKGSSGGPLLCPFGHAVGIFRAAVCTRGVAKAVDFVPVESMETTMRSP
Method: General procedure: Measurement of the inhibitory effect of compounds on HCV protease activity was performed with the SensoLyte™ 620 HCV Protease Assay kit from AnaSpec, Inc. (San Jose, Calif.) under conditions described by the supplier using 1.2 nM HCV NS3-NS4A protease, which was obtained according to Taremi et al. (Protein Science, 1998, 7, 2143-2149). The compounds were tested at a variety of concentrations in assay buffer containing a final DMSO concentration of 5%. Reactions were allowed to proceed for 60 min at room temperature and fluorescence measurements were recorded with a Tecan Infinity Spectrofluorimeter. The IC50 values were determined from the percent inhibition versus concentration data using a sigmoidal non-linear regression analysis based on four parameters with Tecan Magellan software.

Structure (SMILES)	CC50 [1] [nM]	EC50 [2] [nM]	IC50 [3] [nM]
COc1ccc2c(O[C@H]3C[C@H]4C(=O)N(C)CCCC/C=C\[C@@H]5C[C@@]5(C(=O)NS(=O)(=O)C5(C)CC5)NC(=O)N4C3)cc(-c3nc(C4CCC4)cs3)nc2c1Cl [AC3, (Z)-(4R,6S,15S,17S)-[17-[8-chloro-7-methoxy-2-(4-cyclobutylthiazol-2-yl)quinolin-4-yloxy]-13-N-methyl-2,14-dioxo-1,3,13-triazatricyclo-[13.3.0.0]octadec-7-en-4-yl]carbonyl-(1-methylcyclopropyl)sulfonamide]	> 75000	< 1000	< 1000
C#Cc1csc(-c2cc(O[C@H]3C[C@H]4C(=O)N(C)CCCC/C=C\[C@@H]5C[C@@]5(C(=O)NS(=O)(=O)C5(C)CC5)NC(=O)N4C3)c3ccc(OC)c(C)c3n2)n1 [Compound G4, (Z)-(4R,6S,15S,17S)-[17-[7-methoxy-8-methyl-2-(4-ethynylthiazol-2-yl)quinolin-4-yloxy]-13-N-methyl-2,14-dioxo-1,3,13-triazatricyclo-[13.3.0.0]octadec-7-en-4-yl]carbonyl (1-methylcyclopropyl)sulfonamide]	10000 to 75000	< 1000	< 1000
COc1ccc2c(O[C@H]3C[C@H]4C(=O)N(C)CCCC/C=C\[C@@H]5C[C@@]5(C(=O)NS(=O)(=O)C5CC5)NC(=O)N4C3)cc(-c3nc(C(C)C)cs3)nc2c1C [Compound 62b, (Z)-(4R,6S,15S,17S)-[17-[7-methoxy-8-methyl-2-(4-isopropylthiazol-2-yl)quinolin-4-yloxy]-13-N-methyl-2,14-dioxo-1,3,13-triazatricyclo[13.3.0.0]octadec-7-en-4-yl]carbonyl(cyclopropyl)sulfonamide]	> 75000	< 1000	< 1000
COc1ccc2c(O[C@H]3C[C@H]4C(=O)N(C)CCCC/C=C\[C@@H]5C[C@@]5(C(=O)NS(=O)(=O)C5CC5)NC(=O)N4C3)cc(-c3csc(C(F)(F)F)n3)nc2c1Cl [Compound O1, (Z)-(4R,6S,15S,17S)-[17-[8-chloro-7-methoxy-2-(2-trifluoromethylthiazol-4-yl)quinolin-4-yloxy]-13-N-methyl-2,14-dioxo-1,3,13-triazatricyclo-[13.3.0.0]octadec-7-en-4-yl]carbonyl-(cyclopropyl)sulfonamide]	10000 to 75000	< 1000	< 1000
COc1ccc2c(O[C@H]3C[C@H]4C(=O)N(C)CCCC/C=C\[C@@H]5C[C@@]5(C(=O)NS(=O)(=O)C5CC5)NC(=O)N4C3)cc(-c3nc(C4CC4)cs3)nc2c1Cl [AC1, (Z)-(4R,6S,15S,17S)-[17-[8-chloro-7-methoxy-2-(4-cyclopropylthiazol-2-yl)quinolin-4-yloxy]-13-N-methyl-2,14-dioxo-1,3,13-triazatricyclo-[13.3.0.0]octadec-7-en-4-yl]carbonyl-(cyclopropyl)sulfonamide]	10000 to 75000	< 1000	< 1000
COc1ccc2c(O[C@H]3C[C@H]4C(=O)N(C)CCCC/C=C\[C@@H]5C[C@@]5(C(=O)NS(=O)(=O)C5(C)CC5)NC(=O)N4C3)nc(-c3nc(C(C)C)cs3)nc2c1Cl [Compound 110d, (Z)-(4R,6S,15S,17S)-[17-[8-chloro-7-methoxy-2-(4-isopropylthiazol-2-yl)quinazolin-4-yloxy]-13-N-methyl-2,14-dioxo-1,3,13-triazatricyclo[13.3.0.0]octadec-7-ene-4-yl]carbonyl(1-methylcyclopropyl)sulfonamide]	> 75000	< 1000	< 1000
COc1ccc2c(O[C@H]3C[C@H]4C(=O)N(C)CCCC/C=C\[C@@H]5C[C@@]5(C(=O)NS(C)(=O)=O)NC(=O)N4C3)cc(-c3nc(C(C)C)cs3)nc2c1C [Compound 63b]	> 75000	1000 to 10000	< 1000
COc1ccc2c(O[C@H]3C[C@H]4C(=O)N(C)CCCC/C=C\[C@@H]5C[C@@]5(C(=O)NS(=O)(=O)C5(C)CC5)NC(=O)N4C3)cc(-c3nc(C(C)C)cs3)nc2c1Br [Compound 56h, (Z)-(4R,6S,15S,17S)-[17-[8-bromo-7-methoxy-2-(4-isopropylthiazol-2-yl)quinolin-4-yloxy]-13-N-methyl-2,14-dioxo-1,3,13-triazatricyclo[13.3.0.0]octadec-7-en-4-yl]carbonyl(1-methyl-cyclopropyl)sulfonamide]	> 75000	< 1000	< 1000
COc1ccc2c(O[C@H]3C[C@H]4C(=O)N(C)CCCC/C=C\[C@@H]5C[C@@]5(C(=O)NS(=O)(=O)C5(C)CC5)NC(=O)N4C3)cc(-c3nc(C(F)(F)F)cs3)nc2c1Cl [Compound 68d, (Z)-(4R,6S,15S,17S)-[17-[8-chloro-7-methoxy-2-(4-trifluoromethythiazol-2-yl)quinolin-4-yloxy]-13-N-methyl-2,14-dioxo-1,3,13-triazatricyclo[13.3.0.0]octadec-7-en-4-yl]carbonyl(1-methylcyclopropyl)sulfonamide]	> 75000	< 1000	< 1000
COc1cc(C)c2nc(-c3nc(C(C)C)cs3)cc(O[C@H]3C[C@H]4C(=O)N(C)CCCC/C=C\[C@@H]5C[C@@]5(C(=O)NS(=O)(=O)C5CC5)NC(=O)N4C3)c2c1 [Compound 62f, (Z)-(4R,6S,15S,17S)-[17-[6-methoxy-8-methyl-2-(4-isopropylthiazol-2-yl)quinolin-4-yloxy]-13-N-methyl-2,14-dioxo-1,3,13-triazatricyclo[13.3.0.0]octadec-7-en-4-yl]carbonyl(cyclopropyl)sulfonamide]	> 75000	< 1000	< 1000
COc1ccc2c(O[C@H]3C[C@H]4C(=O)N(C)CCCC/C=C\[C@@H]5C[C@@]5(C(=O)NS(=O)(=O)C5(C)CC5)NC(=O)N4C3)cc(-n3ccc(C(F)(F)F)n3)nc2c1C [Compound 91c, (Z)-(4R,6S,15S,17S)-[17-[7-methoxy-8-methyl-2-(3-trifluoromethyl-1H-pyrazol-1-yl)quinolin-4-yloxy]-13-N-methyl-2,14-dioxo-1,3,13-triazatricyclo[13.3.0.0]octadec-7-ene-4-yl]carbonyl(1-methylcyclopropyl)sulfonamide]	> 75000	< 1000	< 1000
COc1ccc2c(O[C@H]3C[C@H]4C(=O)N(C)CCCC/C=C\[C@@H]5C[C@@]5(C(=O)NS(=O)(=O)C5(C)CC5)NC(=O)N4C3)cc(-n3ccc(C(F)(F)F)n3)nc2c1Cl [Compound 91a, (Z)-(4R,6S,15S,17S)-[17-[8-chloro-7-methoxy-2-(3-trifluoromethyl-1H-pyrazol-1-yl)quinolin-4-yloxy]-13-N-methyl-2,14-dioxo-1,3,13-triazatricyclo[13.3.0.0]octadec-7-ene-4-yl]carbonyl(1-methylcyclopropyl)sulfonamide]	> 75000	< 1000	< 1000
COc1ccc2c(O[C@H]3C[C@H]4C(=O)N(C)CCCC/C=C\[C@@H]5C[C@@]5(C(=O)NS(=O)(=O)C5(C)CC5)NC(=O)N4C3)cc(-c3cc(C(C)C)on3)nc2c1Cl [Compound 96d, (Z)-(4R,6S,15S,17S)-[17-[8-chloro-7-methoxy-2-(5-isopropylisoxazol-3-yl)quinolin-4-yloxy]-13-N-methyl-2,14-dioxo-1,3,13-triazatricyclo[13.3.0.0]octadec-7-ene-4-yl]carbonyl(1-methylcyclopropyl)sulfonamide]	> 75000	1000 to 10000	< 1000
